Laboratory results as given in ChEMBL document CHEMBL4321782, “Gasdermin D (GSDMD) as a new target for the treatment of infection” (Medchemcomm, 2019).
Residues, ends and D or L forms follow the SMILES beside them. *: point of attachment. Cbz = O=C(OCc1ccccc1)*; CH2F = FC*

Tests used:
[1] = molecular target: T1, Gasdermin-D (Mus musculus) (UniProt Q9D8T2); test: Inhibition of GSDMD in LPS-induced mouse monocyte/macrophages assessed as inhibition of pyroptosis by fluorogenic liposome leakage assay; conditions: concentration not given here
T1 sequence (whole entry): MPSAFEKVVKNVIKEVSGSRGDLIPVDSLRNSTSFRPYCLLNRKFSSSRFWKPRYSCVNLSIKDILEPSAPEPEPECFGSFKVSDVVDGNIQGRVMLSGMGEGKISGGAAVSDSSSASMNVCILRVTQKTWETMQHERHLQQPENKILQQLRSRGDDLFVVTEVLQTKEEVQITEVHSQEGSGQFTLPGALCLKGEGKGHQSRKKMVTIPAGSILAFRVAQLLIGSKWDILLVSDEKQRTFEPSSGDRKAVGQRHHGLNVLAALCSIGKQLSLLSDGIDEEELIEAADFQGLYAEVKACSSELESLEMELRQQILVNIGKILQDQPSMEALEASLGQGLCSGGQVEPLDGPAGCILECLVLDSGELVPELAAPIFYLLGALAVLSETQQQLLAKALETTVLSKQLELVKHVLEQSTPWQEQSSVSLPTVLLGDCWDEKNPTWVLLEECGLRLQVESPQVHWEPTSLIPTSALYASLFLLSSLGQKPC

[2] = molecular target: T2, Gasdermin-D (Homo sapiens) (UniProt P57764); test: Inhibition of GSDMD in LPS-induced human monocyte/macrophages assessed as inhibition of pyroptosis by fluorogenic liposome leakage assay; conditions: concentration not given here
T2 sequence (whole entry): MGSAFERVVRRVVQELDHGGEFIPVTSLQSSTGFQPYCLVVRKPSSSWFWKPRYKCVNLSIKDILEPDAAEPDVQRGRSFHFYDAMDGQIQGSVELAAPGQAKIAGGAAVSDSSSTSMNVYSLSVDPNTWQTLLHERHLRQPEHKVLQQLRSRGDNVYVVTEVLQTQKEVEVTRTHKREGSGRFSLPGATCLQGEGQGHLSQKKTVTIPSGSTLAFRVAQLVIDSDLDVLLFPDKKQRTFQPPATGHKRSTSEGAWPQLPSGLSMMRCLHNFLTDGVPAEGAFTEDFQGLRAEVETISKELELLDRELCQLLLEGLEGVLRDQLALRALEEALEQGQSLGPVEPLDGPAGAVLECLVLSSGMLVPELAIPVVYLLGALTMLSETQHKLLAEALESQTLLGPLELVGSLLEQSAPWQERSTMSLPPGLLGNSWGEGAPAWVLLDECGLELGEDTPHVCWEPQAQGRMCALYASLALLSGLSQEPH

[3] = molecular target: T2, Gasdermin-D (Homo sapiens); test: Inhibition of human GSDMD expressed in HEK293 cells assessed as inhibition of GSDMD -induced lethality; assay type: cell-based
[4] = molecular target: T1, Gasdermin-D (Mus musculus); test: Inhibition of mouse GSDMD expressed in HEK293 cells assessed as inhibition of GSDMD -induced lethality; assay type: cell-based

Structure (SMILES) | inhibition [1] [%] | inhibition [2] [%] | INH [3] [µM] | INH [4] [µM]
CC(C)[C@H](NC(=O)OCc1ccccc1)C(=O)N[C@@H](C)C(=O)N[C@@H](CC(=O)O)C(=O)CF (Cbz-Val-Ala-Asp-CH2F) | > 50 | > 50 |  | 
COc1ccccc1-c1cc2n(n1)Cc1ccc(NC(C)=O)cc1OC2 |  |  | 1 | 5
Cc1ccc(S(=O)(=O)/C=C/C#N)cc1 | > 50 | > 50 |  | 
